Laboratory results as given in paper PMC12596218 (Journal of Lipid Research, 2025).
“And” between values parts separate entries of the source, which are not always exact repeats. Equal values may be shown once. Each block holds one compound with its values, some of them ahead of it.

Columns and labels:
NTCP [1] = target: T1, NTCP (Homo sapiens, UniProt Q14973); test: [3H]DHEAS transport inhibition assay in NTCP-HEK293 cells; type: cell-based; conditions: 1 μM [3H]DHEAS, 10 min; two independent experiments; read-out: IC50 NTCP [3H]DHEAS uptake
T1 construct: stably transfected with the full open reading frames of human NTCP, ASBT, SOAT, OATP1B1, OATP1B3, OATP2B1, and murine Asbt (mAsbt); expressed in transfected cells; host or cells: HEK293 (Flp-In), stably transfected, tetracycline-induced
T1 sequence (Q14973 1-349): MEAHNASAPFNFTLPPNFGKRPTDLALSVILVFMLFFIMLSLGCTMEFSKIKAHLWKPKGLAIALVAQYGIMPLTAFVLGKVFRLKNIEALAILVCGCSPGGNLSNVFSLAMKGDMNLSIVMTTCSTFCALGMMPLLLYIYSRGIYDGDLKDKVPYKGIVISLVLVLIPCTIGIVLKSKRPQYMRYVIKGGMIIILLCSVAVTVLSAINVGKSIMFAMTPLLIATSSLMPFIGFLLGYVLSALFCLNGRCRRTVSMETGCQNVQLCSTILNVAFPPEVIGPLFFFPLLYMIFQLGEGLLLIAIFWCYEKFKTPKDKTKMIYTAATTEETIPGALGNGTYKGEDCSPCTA
Excerpt: Human embryonic kidney HEK293 cells, stably transfected with the full open reading frames of human NTCP, ASBT, SOAT, OATP1B1, OATP1B3, OATP2B1, and murine Asbt (mAsbt) were used as reported ([18], [20], [21], [22], [23]). The NTCP, ASBT, and mAsbt constructs were C-terminally tagged with the FLAG epitope, and the SOAT construct was C-terminally tagged with green fluorescent protein. Non-transfected Flp-In HEK293 cells (Thermo Fisher Scientific) served as the control. All cell lines were maintained at 37°C, 5% CO2 and 95% humidity in DMEM/F-12 medium (Thermo Fisher Scientific) supplemented with 10% fetal calf serum (Sigma-Aldrich), 4 mM L-glutamine (PAA) and penicillin/streptomycin (PAA). […]
Cells were seeded onto poly-L-lysine-coated 96-well plates, induced with 1 μg/ml tetracycline, and grown to confluence over 72 h at 37°C. […] Then, the cell-associated radioactivity of the respective tritium-labeled substrate or ligand was quantified by liquid scintillation counting using MicroScint-20 scintillation cocktail (Revvity) in a Packard Microplate Scintillation Counter TopCount NXT (Packard Instrument Company). […] Finally, all net transport data were expressed as uptake or binding as % of control. […] From the specific uptake rates, Michaelis Menten Km values were calculated by non-linear regression analysis.

NTCP [2] = conditions: cited from earlier work
murine Asbt (mAsbt) = target: T2, murine Asbt (mAsbt) (Mus musculus, UniProt P70172); test: [3H]TC transport and inhibition assay in mAsbt-HEK293 cells; type: cell-based; conditions: for Inhibition curve/AUC of mAsbt compared to ASBT: 1 μM [3H]TC, 10 min, AUC combined from two experiments
T2 construct: stably transfected with the full open reading frames of human NTCP, ASBT, SOAT, OATP1B1, OATP1B3, OATP2B1, and murine Asbt (mAsbt); expressed in transfected cells; host or cells: HEK293 (Flp-In), stably transfected, tetracycline-induced
T2 sequence (P70172 1-348): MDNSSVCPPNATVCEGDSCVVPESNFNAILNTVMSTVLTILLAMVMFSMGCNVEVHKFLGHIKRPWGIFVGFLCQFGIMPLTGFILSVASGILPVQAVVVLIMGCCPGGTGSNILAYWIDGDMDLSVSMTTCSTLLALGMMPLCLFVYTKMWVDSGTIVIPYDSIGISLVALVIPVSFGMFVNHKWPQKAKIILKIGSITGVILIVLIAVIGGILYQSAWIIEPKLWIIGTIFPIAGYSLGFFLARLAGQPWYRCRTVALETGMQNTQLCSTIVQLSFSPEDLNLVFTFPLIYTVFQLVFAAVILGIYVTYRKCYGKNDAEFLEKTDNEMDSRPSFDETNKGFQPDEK
Excerpt: Human embryonic kidney HEK293 cells, stably transfected with the full open reading frames of human NTCP, ASBT, SOAT, OATP1B1, OATP1B3, OATP2B1, and murine Asbt (mAsbt) were used as reported ([18], [20], [21], [22], [23]). The NTCP, ASBT, and mAsbt constructs were C-terminally tagged with the FLAG epitope, and the SOAT construct was C-terminally tagged with green fluorescent protein. Non-transfected Flp-In HEK293 cells (Thermo Fisher Scientific) served as the control. All cell lines were maintained at 37°C, 5% CO2 and 95% humidity in DMEM/F-12 medium (Thermo Fisher Scientific) supplemented with 10% fetal calf serum (Sigma-Aldrich), 4 mM L-glutamine (PAA) and penicillin/streptomycin (PAA). Expression of the respective carrier protein was induced by tetracycline treatment at 1 μg/ml (Carl Roth GmbH + Co. KG).
Cells were seeded onto poly-L-lysine-coated 96-well plates, induced with 1 μg/ml tetracycline, and grown to confluence over 72 h at 37°C. Then, cells were washed with tempered (37°C) phosphate-buffered saline (PBS, containing 137.0 mM NaCl, 2.7 mM KCl, 1.5 mM KH2PO4, and 7.3 mM Na2HPO4, at pH 7.4) and preincubated with 80 μl sodium transport buffer (STB, containing 142.9 mM NaCl, 4.7 mM KCl, 1.2 mM MgSO4, 1.2 mM KH2PO4, 1.8 mM CaCl2, and 20.0 mM HEPES, at pH 7.4) for 5 min at 37°C. For inhibition studies, the medium was replaced by 80 μl STB containing the respective inhibitor or solvent alone and cells were further incubated for 5 min at 37°C. Transport experiments were started by adding 20 μl of a 5-fold concentrated substrate solution (solved in STB). For transport experiments under sodium-free conditions the same buffer composition was used as for STB, but sodium chloride was substituted with equimolar concentrations of choline chloride as previously reported ([20], [24]). Transport experiments were stopped by washing twice with ice-cold PBS and the plates were kept cool on ice until adding the lysis buffer [1% sodium dodecyl sulfate (SDS) and 1 N NaOH]. Then, the cell-associated radioactivity of the respective tritium-labeled substrate or ligand was quantified by liquid scintillation counting using MicroScint-20 scintillation cocktail (Revvity) in a Packard Microplate Scintillation Counter TopCount NXT (Packard Instrument Company). For IC50 transport inhibition measurements, the mean uptake values measured in non-carrier-expressing HEK293 control cells were defined as 0% uptake control and were subtracted from all other values. Values from cells without inhibitor and solvent alone were set to 100%. Finally, all net transport data were expressed as uptake or binding as % of control. […] From the specific uptake rates, Michaelis Menten Km values were calculated by non-linear regression analysis.

OATP2B1 = conditions: cited from earlier work
ASBT = target: T3, ASBT (Homo sapiens, UniProt Q12908); test: Transport inhibition and recovery assay (inhibitor washout) in ASBT-HEK293 cells; type: cell-based; conditions: 3 μM inhibitor, 5 min preincubation, 10 min uptake of 1 μM [3H]TC
T3 construct: stably transfected with the full open reading frames of human NTCP, ASBT, SOAT, OATP1B1, OATP1B3, OATP2B1, and murine Asbt (mAsbt); expressed in transfected cells; host or cells: HEK293 (Flp-In), stably transfected, tetracycline-induced
T3 sequence (Q12908 1-348): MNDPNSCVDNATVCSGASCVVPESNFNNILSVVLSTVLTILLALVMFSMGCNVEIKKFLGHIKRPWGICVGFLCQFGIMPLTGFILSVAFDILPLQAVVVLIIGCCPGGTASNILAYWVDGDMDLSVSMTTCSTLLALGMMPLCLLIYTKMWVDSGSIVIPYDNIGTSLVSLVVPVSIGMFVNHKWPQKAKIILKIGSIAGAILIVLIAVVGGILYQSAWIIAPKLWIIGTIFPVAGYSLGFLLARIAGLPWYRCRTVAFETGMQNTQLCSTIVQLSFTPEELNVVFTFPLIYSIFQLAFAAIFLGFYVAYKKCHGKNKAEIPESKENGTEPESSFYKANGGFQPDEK

IC50 (NTCP [1]): 11.7 µM and 11.1 µM
Compound: CCCCC1(CCCC)CN(c2ccccc2)c2cc(SC)c(OCC(=O)N[C@@H](C(=O)NCC(=O)O)c3ccccc3)cc2S(=O)(=O)C1 [elobixibat]
IC50 (NTCP [2]; ref PMDA Goofice Report on the Deliberation Results, read-out: IC50 NTCP inhibition): 0.24 µM

Transport inhibition at highest substrate concentration (murine Asbt (mAsbt); 500 μM [3H]TC): full transport inhibition
ASBT inhibition with inhibitor present during uptake (inhibitor + [3H]TC) (ASBT): full ASBT inhibition
Compound: CCCC[C@]1(CC)CS(=O)(=O)c2cc(CNC(CC(=O)O)CC(=O)O)c(OC)cc2[C@@H](c2ccccc2)N1 [linerixibat]
Inhibition curve/AUC of mAsbt compared to ASBT (murine Asbt (mAsbt)): lower AUC values were determined for mAsbt compared to ASBT but without reaching the level of significance
IC50 values at increasing substrate concentrations (in words) (murine Asbt (mAsbt); [3H]TC 0.3-500 μM): remained quite stable
Substrate of OATP2B1 (OATP2B1): is not a substrate

Compound: CCCCC1(CCCC)CS(=O)(=O)c2ccc(N(C)C)cc2[C@@H](c2ccc(OCc3ccc(C[N+]45CCN(CC4)CC5)cc3)cc2)[C@H]1O [maralixibat]
OATP2B1 inhibition (in words) (OATP2B1; in vitro studies, ref EMA EPAR Product Information Maralixibat): Maralixibat is an OATP2B1 inhibitor based on in vitro studies. No potential for clinically relevant drug-drug interactions (DDI), but theoretical risk of interaction with substrates of this carrier.
IC50 (OATP2B1; in vitro, ref FDA NDA 214662 Livmarli, read-out: IC50 OATP2B1 inhibition): 1.02 µM
Inhibition of NTCP (NTCP [2]; 50 μM, NTCP expressed in CHO cells, ref FDA NDA 214662 Livmarli): Maralixibat at 50 μM produced 5% inhibition of NTCP expressed in CHO cells.

IC50 (NTCP [1]): 8.7 µM and 5.5 µM
Compound: CCCCC1(CCCC)CN(c2ccccc2)c2cc(SC)c(OCC(=O)N[C@@H](C(=O)N[C@@H](CC)C(=O)O)c3ccc(O)cc3)cc2S(=O)(=O)N1 [odevixibat]
Inhibition curve/AUC of mAsbt compared to ASBT (murine Asbt (mAsbt)): much more potent inhibitor of the human ASBT protein compared to mAsbt
